Experimental data from patent publication US20130090327A1, “Inhibitors of Protein Tyrosine Kinase Activity” (METHYLGENE INC., priority 2011, published 2013).

target: T1, VEGFR2 (KDR) (Homo sapiens, UniProt P35968); experiment: In Vitro Receptor Tyrosine Kinase Assay (VEGF Receptor KDR); assay type: biochemical; conditions: recombinant GST-VEGFR2 806-1356, DELFIA assay, ATP 0.6 uM, enzyme 5 nM; read-out: VEGFR_IC50_UM
T1 construct: made in house; host or cells: Sf9 cells (Spodoptera frugiperda), baculovirus (Bac-to-Bac)
T1 sequence (P35968 806-1356): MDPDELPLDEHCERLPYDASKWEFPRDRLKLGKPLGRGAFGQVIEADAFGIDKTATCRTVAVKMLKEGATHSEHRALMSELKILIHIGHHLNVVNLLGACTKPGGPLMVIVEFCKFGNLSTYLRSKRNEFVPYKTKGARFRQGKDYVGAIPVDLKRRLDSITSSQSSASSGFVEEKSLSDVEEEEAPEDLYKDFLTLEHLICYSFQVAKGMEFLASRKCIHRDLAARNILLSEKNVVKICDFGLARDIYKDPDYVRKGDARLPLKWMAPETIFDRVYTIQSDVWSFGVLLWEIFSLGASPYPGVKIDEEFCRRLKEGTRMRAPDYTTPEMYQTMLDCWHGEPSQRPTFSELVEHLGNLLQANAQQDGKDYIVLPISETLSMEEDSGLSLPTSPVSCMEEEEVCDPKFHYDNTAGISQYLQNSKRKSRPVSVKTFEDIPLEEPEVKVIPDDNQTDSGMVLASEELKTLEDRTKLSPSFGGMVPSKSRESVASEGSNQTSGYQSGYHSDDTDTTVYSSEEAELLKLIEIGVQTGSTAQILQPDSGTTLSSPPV
Excerpt: In Vitro Receptor Tyrosine Kinase Assay (VEGF Receptor KDR)
This test measures the ability of compounds to inhibit the enzymatic activity of recombinant human VEGF receptor enzymatic activity.
A 1.6-kb cDNA corresponding to the catalytic domain of VEGFR2 (KDR) (Genbank accession number AF035121 amino acid 806 to 1356) is cloned into the Pst I site of the pDEST20 Gateway vector (Invitrogen) for the production of a GST-tagged version of that enzyme. This construct is used to generate recombinant baculovirus using the Bac-to-Bac™ system according to the manufacturer's instructions (Invitrogen).
The GST-VEGFR2806-1356 protein is expressed in Sf9 cells (Spodoptera frugiperda) upon infection with recombinant baculovirus construct. Briefly, Sf9 cells grown in suspension and maintained in serum-free medium (Sf900 II supplemented with gentamycin) at a cell density of about 2×10^6 cells/ml are infected with the above-mentioned viruses at a multiplicity of infection (MOI) of 0.1 during 72 hours at 27° C. with agitation at 120 rpm on a rotary shaker. Infected cells are harvested by centrifugation at 398 g for 15 min. Cell pellets are frozen at […] until purification is performed.
All steps described in cell extraction and purification are performed at 4° C. Frozen Sf9 cell pellets infected with the GST-VEGFR2806-1356 recombinant baculovirus are thawed and gently resuspended in Buffer A (PBS pH 7.3 supplemented with 1 μg/ml pepstatin, 2 μg/ml Aprotinin and leupeptin, 50 μg/ml PMSF, 50 μg/ml TLCK and 10 μM E64 and 0.5 mM DTT) using 3 ml of buffer per gram of cells. Suspension is Dounce homogenized and 1% Triton X-100 is added to the homogenate after which it is centrifuged at 22500 g, 30 min., 4° C. The supernatant (cell extract) is used as starting material for purification of GST-VEGFR2806-1356.
The supernatant is loaded onto a GST-agarose column (Sigma) equilibrated with PBS pH 7.3. Following a four column volume (CV) wash with PBS pH 7.3+1% Triton X-100 and 4 CV wash with buffer B (50 mM Tris pH 8.0, 20% glycerol and 100 mM NaCl), bound proteins are step eluted with 5 CV of buffer B supplemented with 5 mM DTT and 15 mM glutathion. GST-VEGFR2806-1356 enriched fractions from this chromatography step are pooled based on U.V. trace i.e. fractions with high O.D.280. Final GST-VEGFR2806-1356 protein preparations concentrations are about 0.7 mg/ml with purity approximating 70%. Purified GST-VEGFR2806-1356 protein stocks are aliquoted and frozen at −80° C. prior to use in enzymatic assay.
Inhibition of VEGFR/KDR is measured in a DELFIA™ assay (Perkin Elmer). The substrate poly(Glu4,Tyr) is immobilized onto black high-binding polystyrene 96-well plates. The coated plates are washed and stored at 4° C. During the assay, the enzyme is pre-incubated with inhibitor and Mg-ATP on ice in polypropylene 96-well plates for 4 minutes, and then transferred to the coated plates. The subsequent kinase reaction takes place at 30° C. for 10-minutes. ATP concentrations in the assay are 0.6 uM for VEGFR/KDR (2× the Km). Enzyme concentration is 5 nM. After incubation, the kinase reactions are quenched with EDTA and the plates are washed. Phosphorylated product is detected by incubation with Europium-labeled anti-phosphotyrosine MoAb. After washing the plates, bound MoAb is detected by time-resolved fluorescence in a Gemini SpectraMax reader (Molecular Devices). Compounds are evaluated over a range of concentrations, and IC50 values (concentration of compounds giving 50% inhibition of enzymatic activity) are determined.

SMILES	IC50 [µM]
CC(=O)N1CC(NC(=O)Nc2ccc(Oc3ccnc4cc(-c5ccc(CN6CC(N)C6)cn5)sc34)c(F)c2)C1 [Compound 46]	0.13
COCCN(Cc1ccc(-c2cc3nccc(Oc4ccc(Nc5nc6cc(Cl)ccc6[nH]5)cc4F)c3s2)nc1)C(=O)CO [Compound 65, N-((6-(7-(4-(5-Chloro-1H-benzo[d]imidazol-2-ylamino)-2-fluorophenoxy)thieno[3,2-b]pyridin-2-yl)pyridin-3-yl)methyl)-2-hydroxy-N-(2-methoxyethyl)acetamide]	0.023
COCCN(Cc1ccc(-c2cc3nccc(Oc4ccc(NC(=O)NC5COC5)cc4F)c3s2)nc1)C(C)=O [Compound 106]	0.012
CN1CCN(Cc2ccc(-c3cc4nccc(Oc5ccc(NC(=O)NC6CN(C(=O)OC(C)(C)C)C6)cc5F)c4s3)nc2)CC1 [Compound 50, tert-Butyl 3-(3-(3-fluoro-4-(2-(5-((4-methylpiperazin-1-yl)methyl)pyridin-2-yl)thieno[3,2-b]pyridin-7-yloxy)phenyl)ureido)azetidine-1-carboxylate]	0.035
CC(=O)N1CC(NC(=O)Nc2ccc(Oc3ccnc4cc(-c5ccc(CN6CCOC6=O)cn5)sc34)c(F)c2)C1 [Compound 113, 1-(1-Acetylazetidin-3-yl)-3-(3-fluoro-4-(2-(5-((2-oxooxazolidin-3-yl)methyl)pyridin-2-yl)thieno[3,2-b]pyridin-7-yloxy)phenyl)urea]	0.095
O=C(Nc1ccc(Oc2ccnc3cc(-c4ccc(CN5CCN(C(=O)CO)CC5)cn4)sc23)c(F)c1)NC1COC1 [Compound 88, 1-(3-Fluoro-4-(2-(5-((4-(2-hydroxyacetyl)piperazin-1-yl)methyl)pyridin-2-yl)thieno[3,2-b]pyridin-7-yloxy)phenyl)-3-(oxetan-3-yl)urea]	0.042
CCNC(=O)N(CCOC)Cc1ccc(-c2cc3nccc(Oc4ccc(NC(=O)NC5CN(C(=O)NCC)C5)cc4F)c3s2)nc1 [Compound 69, N-Ethyl-3-(3-(4-(2-(5-((3-ethyl-1-(2-methoxyethyl)ureido)methyl)pyridin-2-yl)thieno[3,2-b]pyridin-7-yloxy)-3-fluorophenyl)ureido)azetidine-1-carboxamide]	0.584
COCCN(Cc1ccc(-c2cc3nccc(Oc4ccc(NC(=O)NC5CN(C(C)=O)C5)cc4F)c3s2)nc1)C(C)=O [Compound 70, N-((6-(7-(4-(3-(1-Acetylazetidin-3-yl)ureido)-2-fluorophenoxy)thieno[3,2-b]pyridin-2-yl)pyridin-3-yl)methyl)-N-(2-methoxyethyl)acetamide]	0.075
O=C(Nc1ccc(Oc2ccnc3cc(-c4ccc(CN5CCCC5=O)cn4)sc23)c(F)c1)NC1COC1 [Compound 93, 1-(3-Fluoro-4-(2-(5-((2-oxopyrrolidin-1-yl)methyl)pyridin-2-yl)thieno[3,2-b]pyridin-7-yloxy)phenyl)-3-(oxetan-3-yl)urea]	0.009
CN1CCN(Cc2ccc(-c3cc4nccc(Oc5ccc(NC(=O)NC6CN(C)C6)cc5F)c4s3)nc2)CC1 [Compound 19, 1-(3-Fluoro-4-(2-(5-((4-methylpiperazin-1-yl)methyl)pyridin-2-yl)thieno[3,2-b]pyridin-7-yloxy)phenyl)-3-(1-methylazetidin-3-yl)urea]	0.975
CC(=O)N1CC(NC(=O)Nc2ccc(Oc3ccnc4cc(-c5ccc(CN6CCC(NC(=O)CO)CC6)cn5)sc34)c(F)c2)C1 [Compound 43, N-(1-((6-(7-(4-(3-(1-Acetylazetidin-3-yl)ureido)-2-fluorophenox)thieno[3,2-b]pyridin-2-yl)pyridin-3-yl)methyl)piperidin-4-yl)-2-hydroxyacetamide]	0.061
O=C(CO)N1CCN(Cc2ccc(-c3cc4nccc(Oc5ccc(Nc6nc7cc(Cl)ccc7[nH]6)cc5F)c4s3)nc2)CC1 [Compound 61, 1-(4-((6-(7-(4-(5-Chloro-1H-benzo[d]imidazol-2-ylamino)-2-fluorophenoxy)thieno[3,2-b]pyridin-2-yl)pyridin-3-yl)methyl)piperazin-1-yl)-2-hydroxyethanone]	0.056
CN(C)[C@H]1CCN(C(=O)c2cc3nccc(Oc4ccc(NC(=O)NC5COC5)cc4F)c3s2)C1 [Compound 107]	0.056
CC(=O)N1CC(NC(=O)Nc2ccc(Oc3ccnc4cc(-c5ccc(CN6CCC(N(C)C(=O)CO)CC6)cn5)sc34)c(F)c2)C1 [Compound 47]	0.032
CCNC(=O)NC1CCN(Cc2ccc(-c3cc4nccc(Oc5ccc(NC(=O)NC6CN(C(C)=O)C6)cc5F)c4s3)nc2)CC1 [Compound 44]	0.157
COCCN(Cc1ccc(-c2cc3nccc(Oc4ccc(NC(=O)NC5CN(C(=O)OC(C)(C)C)C5)cc4F)c3s2)nc1)C(=O)OC(C)(C)C [Compound 67, tert-Butyl 3-(3-(4-(2-(5-((tert-butoxycarbonyl(2-methoxyethyl)amino)methyl)pyridin-2-yl)thieno[3,2-b]pyridin-7-yloxy)-3-fluorophenyl)ureido)azetidine-1-carboxylate]	0.057
O=C(Nc1ccc(Oc2ccnc3cc(-c4ccc(CN5CCOC5=O)cn4)sc23)c(F)c1)NC1COC1 [Compound 105]	0.025
CCOC(=O)C1CCCN(Cc2ccc(-c3cc4nccc(Oc5ccc(NC(=O)NC6COC6)cc5F)c4s3)nc2)C1 (stereo not shown) [Compound 73, Ethyl 1-((6-(7-(2-fluoro-4-(3-oxetan-3-ylureido)phenoxy)thieno[3,2-b]pyridin-2-yl)pyridin-3-yl)methyl)piperidine-3-carboxylate]	0.523
CN1CCN(Cc2ccc(-c3cc4nccc(Oc5ccc(NC(=O)NC6CN(S(C)(=O)=O)C6)cc5F)c4s3)nc2)CC1 [Compound 54]	0.036
CN1CCN(Cc2ccc(-c3cc4nccc(Oc5ccc(Nc6nc7cc(Cl)ccc7[nH]6)cc5F)c4s3)nc2)CC1 [Compound 62, 5-Chloro-N-(3-fluoro-4-(2-(5-((4-methylpiperazin-1-yl)methyl)pyridin-2-yl)thieno[3,2-b]pyridin-7-yloxy)phenyl)-1H-benzo[d]imidazol-2-amine]	0.044
CC(=O)N1CC(NC(=O)Nc2ccc(Oc3ccnc4cc(-c5ccc(CN6CCC(N)CC6)cn5)sc34)c(F)c2)C1 [Compound 41, 1-(1-Acetylazetidin-3-yl)-3-(4-(2-(5-((4-aminopiperidin-1-yl)methyl)pyridin-2-yl)thieno[3,2-b]pyridin-7-yloxy)-3-fluorophenyl)urea]	0.078
CC(C)(C)OC(=O)N1CC(NC(=O)Nc2ccc(Oc3ccnc4cc(-c5ccc(CN6CCCC6=O)cn5)sc34)c(F)c2)C1 [Compound 110]	0.017
Cc1ccc(S(=O)(=O)N2CC(NC(=O)Nc3ccc(Oc4ccnc5cc(-c6ccc(CN7CCN(C)CC7)cn6)sc45)c(F)c3)C2)cc1 [Compound 55]	0.01
CC(=O)N1CC(NC(=O)Nc2ccc(Oc3ccnc4cc(-c5ccc(CN6CCN(C)CC6)cn5)sc34)c(F)c2)C1 [Compound 51]	0.1
COCCN(Cc1ccc(-c2cc3nccc(Oc4ccc(NC(=O)NC5COC5)c(F)c4F)c3s2)nc1)C(=O)OC(C)(C)C [Compound 108]	0.031
CC(=O)N1CC(NC(=O)Nc2ccc(Oc3ccnc4cc(-c5ccc(CN6CCC(NC(=O)OC(C)(C)C)CC6)cn5)sc34)c(F)c2)C1 [Compound 40, tert-Butyl 1-((6-(7-(4-(3-(1-acetylazetidin-3-yl)ureido)-2-fluorophenoxy)thieno[3,2-b]pyridin-2-yl)pyridin-3-yl)methyl)piperidin-4-ylcarbamate]	0.28
CC(C)(C)OC(=O)N1CC(NC(=O)Nc2ccc(Oc3ccnc4cc(-c5ccc(CN6CCOC6=O)cn5)sc34)c(F)c2)C1 [Compound 111]	0.059
COCCN(Cc1ccc(-c2cc3nccc(Oc4ccc(NC(=O)NC5COC5)c(F)c4F)c3s2)nc1)C(C)=O [Compound 109]	0.011
